Values quoted from earlier work in patent US20130096060A1, “GLP-1 AGONIST FOR USE IN THE TREATMENT OF STENOSIS OR/AND OBSTRUCTION IN THE PANCREATIC DUCT SYSTEM” (priority 2011, published 2013).

Key:
[1] = system: acinar cells of the pancreas; details: in contrast to exendin-4
[2] = system: acinar cells of the guinea pig pancreas; details: by interaction with exendin receptors (Raufman, 1996)

Row | Substance | amylase release [1] | cellular cAMP production [2]
1 | exendin-3: peptide of the exendin group, able to lower blood glucose concentrations | produces an increase | stimulate an increase
2 | exendin-4: peptide of the exendin group, 39 AS, SEQ ID NO: 2, able to lower blood glucose concentrations | – | stimulate an increase
